Each structure is given as a SMILES string.

Two compounds from paper PMC5655693, “Conformational stabilization as a strategy to prevent nucleophosmin mislocalization in leukemia” (Scientific Reports, 2017) can be followed below.

The target in experiment [1] is T1, Nucleophosmin (NPM) (Homo sapiens, UniProt P06748).
T1 construct: gene NPM1; full-length NPM (SPR); C-terminal domain residues 243–294 (DSF)
Briefly: SPR steady state ([…] model, S0.[…] ≈ KD); DSF ΔTm […] °C at […] with C-terminal domain; Trp fluorescence unfolding. Format: binding.

Experiment [2] deals with T1, Nucleophosmin (NPM). The experiment can be described thus: SPR steady state ([…] model, S0.[…] ≈ KD); DSF ΔTm […] °C at […] with C-terminal domain. Format: binding.

T1 sequence (P06748 whole entry, the tested form may be a part): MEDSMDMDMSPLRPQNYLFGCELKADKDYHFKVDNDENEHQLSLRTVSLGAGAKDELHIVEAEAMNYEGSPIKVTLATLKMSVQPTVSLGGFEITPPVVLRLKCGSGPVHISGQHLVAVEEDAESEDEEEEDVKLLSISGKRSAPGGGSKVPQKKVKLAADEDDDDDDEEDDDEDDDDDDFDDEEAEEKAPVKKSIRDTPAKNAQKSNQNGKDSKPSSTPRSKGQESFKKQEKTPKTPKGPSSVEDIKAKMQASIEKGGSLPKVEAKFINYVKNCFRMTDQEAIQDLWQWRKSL

On to `CC1=C(C(=O)Nc2ccc(Br)cn2)C(c2ccccn2)C2=C(CC(c3ccccc3)CC2=O)N1` (centres unmarked) [C1], for which, at Nucleophosmin (NPM) [1], binding was characterised by a dissociation constant (Kd) of 68 ± 13 µM.

On to `Cc1ccc(-n2c(SCC(=O)Nc3ccc4c(c3)OCCO4)nc3ccccc3c2=O)cc1` [C3], for which the Kd – broadly, the equilibrium constant for the complex coming apart – at Nucleophosmin (NPM) [2] worked out at 102 ± 23 µM.
